According to publication PMC4912613, “A broad analysis of resistance development in the malaria parasite” (Nature Communications, 2016):

Tested on: MMV008149-resistant clones (Dd2 parent; cytochrome bc1 G131S, Y126C, V284L)
Experiment: EC50 assay on MMV008149-resistant lines
Assay type: cell-based
Conditions: Plasmodium falciparum, six MMV008149-resistant clones
Experimental: Genomic DNA (gDNA) was isolated from the Dd2 parent and six clones (two clones per resistant selection flask), and samples were prepared for whole-genome sequencing. Samples were sequenced to >60 × coverage using paired end reads and aligned to the 3D7 reference genome and variants were called with HaplotypeCaller (GATK). Comparing the nucleotide variation found in the resistant samples to the Dd2 parent clone, which had been isolated immediately before selections, we identified genomic changes that had presumably occurred during selection. Following this comparison, 19 mutations were identified: 11 SNVs and eight insertion/deletions (INDELs) (Table 2, Supplementary Data 2). INDEL mutations were comprised of intergenic (three), codon INDEL (three), intronic (one) and frame-shift (one) mutations. […] Comparing all six clones, one gene was mutated across all samples: cytochrome bc1. […]
Alternatively, a SYBR Green-based proliferation approach was used for the 72-h assay, as previously described. […] Following incubation, 10 × SYBR Green I (Invitrogen; supplied in 10,000 × concentration) in lysis buffer ([…], 5 mM EDTA, 0.16% Saponin wt per vol and 1.6% Triton X vol per vol) was added to the wells and the plates were incubated overnight at room temperature before plate reading. […]

Structure (SMILES): Cc1c(C)n(Cc2ccc(F)cc2)c2ccc(C(=O)NCc3ccco3)cc12 [MMV008149]
- EC50: 1.67 to 10.1 µM
